Measured values reported in patent US20160137685A1, “NUCLEOSIDE PHOSPHORAMIDATES AND PHOSPHORAMIDITES” (priority 2013, published 2016).

Columns and labels:
[1] = test system: SK-HEP-1 hepatic cancer cells; test: MTT cell viability assay, SK-HEP-1 hepatic cancer cells; format: cell-based; details: 72 hours, 0.01-20 μM, calculated with Compusyn software
Method: (§1) FIG. 1. Floxphosteridine and floxuridine anticancer activity in vitro against SK-HEP-1 hepatic cancer cells. SK-HEP-1 hepatic cancer cells were treated with various concentrations (0.01 μM-20 μM) of floxphosteridine and floxuridine for 72 hours, and cell viability was evaluated with MTT cell viability assay.
(§2) We treated three cancer cell lines with various concentrations of Floxphosteridine (compound Ic) and floxuridine for 72 hours. The structure of floxuridine is shown below:
(§3) The SK-HEP-1 and HEPG2 cell lines used in these experiments represent in vitro models for hepatic cancer. The AGS cancer cell line is an in vitro model for gastric cancer.
In FIG. 1, SK-HEP-1 hepatic cancer cells were treated with various concentrations (0.01-20 μM) of floxphosteridine and floxuridine for 72 hours, and cell viability was evaluated with the MTT assay.

[2] = test system: HEPG2 hepatic cancer cells; test: MTT cell viability assay, HEPG2 hepatic cancer cells; format: cell-based; details: 72 hours, 1.0-20 μM, calculated with Compusyn software
Method: as §1, with “2.” for “1.”, “HEPG2” for “SK-HEP-1”, “(1.0” for “(0.01”
as §2, §3
In FIG. 2, the two compounds were tested for anticancer activity against HEPG2 hepatic cancer cells. The cells were treated with various concentrations (1.0-20 μM) of floxphosteridine and floxuridine for 72 hours, and cell viability was evaluated with the MTT assay.

AGS gastric cancer cells = test: MTT cell viability assay, AGS gastric cancer cells; format: cell-based; details: 72 hours, 1.0-20 μM (0.01-20 μM), calculated with Compusyn software
Method: FIG. 3. Floxphosteridine and floxuridine anticancer activity in vitro against AGS gastric cancer cells. AGS gastric cancer cells were treated with various concentrations (0.01 μM-20 μM) of floxphosteridine and floxuridine for 72 hours, and cell viability was evaluated with MTT cell viability assay.
as §2, §3
In FIG. 3, the two compounds were tested for anticancer activity against AGS gastric cancer cells. The cells were treated with various concentrations (1.0-20 μM) of floxphosteridine and floxuridine for 72 hours, and cell viability was evaluated with the MTT assay.

[3] = healthy volunteers, single ascending doses up to 800 mg once daily; cited from earlier work

Compound: CC(C)OC(=O)[C@H](C)N[P@](=O)(OC[C@H]1O[C@@H](n2cc(F)c(=O)[nH]c2=O)C[C@@H]1O)Oc1ccccc1 [floxphosteridine]
- IC50 ([1]; Homo sapiens, SK-HEP1, SK-HEP-1 cells): 31.7 µM
- IC50 ([2]; Homo sapiens): 13.3 µM
- IC50 (AGS gastric cancer cells; Homo sapiens): 7.26 µM

Compound: CC(C)OC(=O)[C@H](C)N[P@](=O)(OC[C@H]1O[C@@H](n2ccc(=O)[nH]c2=O)[C@](C)(F)[C@@H]1O)Oc1ccccc1 (racemic) [PSI-7851]
- safety and tolerability [3]: generally safe and well tolerated, with no dose-limiting toxicities
- systemic exposure profile (pharmacokinetic results) [3]: rapid uptake of the drug by the liver and low plasma exposure to the prodrug PSI-7851

Compound: floxuridine
- IC50 ([1]; SK-HEP-1 cells): 0.8 µM
- IC50 [2]: 10.4 µM
- IC50 (AGS gastric cancer cells): 5.71 µM
